# Laboratory results reported in patent US12544372B2, “Methods of treating rheumatoid arthritis, chronic spontaneous urticaria, and systemic lupus erythematosis using an inhibitor of Bruton's tyrosine kinase” (Genentech, Inc., priority 2019, dated 2026).
# Tested on: ESR
# Assay: RA study: ESR versus baseline
# Type: in vivo, human
# Excerpt: As used herein, “ESR” refers to “Erythrocyte Sedimentation Rate”, which is a test that indirectly measures the degree of inflammation in the body by measuring how quickly red blood cells settle at the bottom of a test tube containing a sample of a patient's blood. See www.healthline.com/health/esr (last visited Aug. 7, 2018). A positive ESR may be determined using the Westergren method according to specifications by the International Council for Standardization in Haematology, or by automated methods (e.g., TEST1 from Alifax). See https://icsh(dot)org/guidelines; Lou, J. M. et al., Int. Jnl. Lab. Hem. 2011, 33:125-132.
# Disease Activity Score 28. The DAS 28-4 (CRP) and the DAS 28-4 (ESR) are calculated as follows. Assessments: (i) Tender joint count of 28 joints (TJC28), square-root transformed; (ii) Swollen joint count of 28 joints (SJC28), square-root transformed; (iii) Acute-phase reactant (erythrocyte sedimentation rate [ESR mm/hr] or high sensitivity C-reactive protein [hsCRP mg/L]), log transformed; (iv) Patient's global assessment of disease activity on visual analog scale (0-100 mm).
compound,measurement,setting,value
"C[C@H]1CN(C2COC2)CCN1c1ccc(Nc2cc(-c3ccnc(N4CCn5c(cc6c5CC(C)(C)C6)C4=O)c3CO)cn(C)c2=O)nc1 [fenebrutinib, (S)-2-(3′-(hydroxymethyl)-1-methyl-5-((5-(2-methyl-4-(oxetan-3-yl)piperazin-1-yl)pyridin-2-yl)amino)-6-oxo-1,6-dihydro-[3,4′-bipyridin]-2′-yl)-7,7-dimethyl-2,3,4,6,7,8-hexahydro-1H-cyclopenta[4,5]pyrrolo[1,2-a]pyrazin-1-one]","ESR, % of BL ESR","Cohort 1, 200 mg BID, Week 12",63%
same,ESR levels,"Cohort 1, Weeks 2, 4 and 8",reduced ESR levels
same,ESR levels,"Cohort 2, Week 8 and Week 12",reduced ESR levels
